Several values for one entry are separate records, joined by “and”; a condition that tells them apart may be missing. Identical values can stand only once.
target: PIK3CD (Human) (UniProt O00329); assay: Assessment of PIK3CD Kinase Activity
Sequence (O00329 whole entry, looked up): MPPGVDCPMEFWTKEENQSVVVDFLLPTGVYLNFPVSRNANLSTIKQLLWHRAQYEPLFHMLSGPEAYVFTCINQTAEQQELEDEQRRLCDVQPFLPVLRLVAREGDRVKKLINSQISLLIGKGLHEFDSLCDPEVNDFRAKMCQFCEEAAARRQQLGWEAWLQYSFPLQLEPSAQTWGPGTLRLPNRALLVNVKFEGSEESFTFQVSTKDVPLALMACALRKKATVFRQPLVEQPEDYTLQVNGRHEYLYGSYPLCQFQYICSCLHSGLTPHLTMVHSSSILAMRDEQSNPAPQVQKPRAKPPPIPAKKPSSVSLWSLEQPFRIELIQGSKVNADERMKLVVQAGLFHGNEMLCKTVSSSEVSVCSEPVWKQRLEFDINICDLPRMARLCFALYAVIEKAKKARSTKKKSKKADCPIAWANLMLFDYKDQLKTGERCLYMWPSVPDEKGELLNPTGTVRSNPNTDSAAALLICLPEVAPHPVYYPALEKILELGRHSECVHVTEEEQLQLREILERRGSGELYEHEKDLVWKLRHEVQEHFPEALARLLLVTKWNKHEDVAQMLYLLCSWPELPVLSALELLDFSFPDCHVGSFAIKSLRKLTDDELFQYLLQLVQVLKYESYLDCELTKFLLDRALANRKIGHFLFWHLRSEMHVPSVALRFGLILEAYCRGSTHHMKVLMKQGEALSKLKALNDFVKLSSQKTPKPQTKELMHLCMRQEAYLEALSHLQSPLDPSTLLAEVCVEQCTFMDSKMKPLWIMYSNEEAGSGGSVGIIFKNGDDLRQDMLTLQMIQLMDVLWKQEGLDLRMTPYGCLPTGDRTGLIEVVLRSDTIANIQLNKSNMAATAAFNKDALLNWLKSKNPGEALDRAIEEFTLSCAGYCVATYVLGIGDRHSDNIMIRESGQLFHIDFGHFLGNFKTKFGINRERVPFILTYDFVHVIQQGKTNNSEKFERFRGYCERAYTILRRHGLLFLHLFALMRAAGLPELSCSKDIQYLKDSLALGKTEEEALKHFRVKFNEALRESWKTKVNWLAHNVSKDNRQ

Row | IC50 | SMILES
1 | < 50 nM | CC(Nc1ncnc2[nH]cnc12)c1cc(Cl)c2cccnc2c1N1CCN(C(=O)C2CCC2)CC1 (centres undefined)
2 | 100 to 250 nM | CC(Nc1ncnc2[nH]cnc12)c1cc(Cl)c2ccccc2c1-c1cccc(F)c1 (centres undefined)
3 | < 50 nM | CC(=O)NC1CCN(c2c(C(C)Nc3ncnc4[nH]cnc34)cc(Cl)c3cccnc23)CC1 (centres undefined)
4 | < 50 nM | COCCN1CCN(c2c(C(C)Nc3ncnc4[nH]cnc34)cc(Cl)c3cccnc23)CC1 (centres undefined)
5 | < 50 nM and 50 to 100 nM | COC1CCN(c2c(C(C)Nc3ncnc4[nH]cnc34)cc(Cl)c3cccnc23)C1 (centres undefined)
6 | 100 to 250 nM | CC(Nc1ncnc2[nH]cnc12)c1cc(Cl)c2cccnc2c1N1CCN(C(=O)c2ccc(F)cc2)CC1 (centres undefined)
7 | < 50 nM | CC(Nc1ncnc2[nH]cnc12)c1cc(Cl)c2cccnc2c1N1CCN(C2CC2)CC1 (centres undefined)
8 | 50 to 100 nM | CC(Nc1ncnc2[nH]cnc12)c1cc(Cl)c2cccnc2c1N1CCN(C(=O)c2ccccc2)CC1 (centres undefined)
9 | < 50 nM | CC(Nc1nc(N)nc2[nH]cnc12)c1ccc2ccccc2c1-c1cncc(F)c1 (centres undefined)
10 | 500 to 1000 nM | Fc1cccc(-c2c(CNc3ncnc4[nH]cnc34)cc(Cl)c3ccnnc23)c1
11 | 100 to 250 nM | CC(Nc1ncnc2[nH]cnc12)c1ccc2ccccc2c1-c1cccc(F)c1 (centres undefined)
12 | < 50 nM | CC(Nc1ncnc2[nH]cnc12)c1cc(Cl)c2cccnc2c1N1CCC[C@H](O)C1 (some centres undefined)
13 | < 50 nM | CCC(=O)N[C@H]1CCN(c2c(C(C)Nc3ncnc4[nH]cnc34)cc(Cl)c3cccnc23)C1 (some centres undefined)
14 | 500 to 1000 nM | CC(Nc1ncnc2[nH]cnc12)c1ccc2cccnc2c1-c1cncc(F)c1 (centres undefined)
15 | < 50 nM | CC(Nc1ncnc2[nH]cnc12)c1ccc2ccccc2c1-c1cncc(F)c1 (centres undefined)
16 | < 50 nM | COC(=O)N1CCN(c2c(C(C)Nc3ncnc4[nH]cnc34)cc(Cl)c3cccnc23)CC1 (centres undefined)
17 | < 50 nM | CC(Nc1ncnc2[nH]cnc12)c1cc(Cl)c2cccnc2c1N1CCN(C2CCC2)CC1 (centres undefined)
18 | 100 to 250 nM | Cc1nc(C(C)Nc2ncnc3[nH]cnc23)c(-c2cccc(F)c2)c2ccccc12 (centres undefined)
19 | < 50 nM | CC(=O)N1CCC(C(=O)N2CCN(c3c(C(C)Nc4ncnc5[nH]cnc45)cc(Cl)c4cccnc34)CC2)CC1 (centres undefined)
20 | 50 to 100 nM | CCc1cc(C(C)Nc2ncnc3[nH]cnc23)c(-c2cccc(F)c2)c2ncccc12 (centres undefined)
21 | 50 to 100 nM | CC(Nc1ncnc2[nH]cnc12)c1cc(C#N)c2cccnc2c1-c1cccc(F)c1 (centres undefined)
22 | < 50 nM and 500 to 1000 nM | Cc1cc(C(C)Nc2ncnc3[nH]cnc23)c(-c2cccc(F)c2)c2nnccc12 (centres undefined)
23 | < 50 nM | CC(Nc1ncnc2[nH]cnc12)c1cc(Cl)c2cccnc2c1-c1cccc(F)c1 (centres undefined)

Row | IC50 | SMILES
24 | < 50 nM | CC(Nc1ncnc2[nH]cnc12)c1cc(Cl)c2cccnc2c1N1CC[C@@H](O)C1 (some centres undefined)
25 | < 50 nM | CC(Nc1nc(N)nc2[nH]cnc12)c1cc(F)c2ccnnc2c1-c1cccc(F)c1 (centres undefined)
26 | 100 to 250 nM | CC(Nc1ncnc2[nH]cnc12)c1cc(Cl)c2cccnc2c1N1CCCC(CO)C1 (centres undefined)
27 | < 50 nM | CC(Nc1ncnc2[nH]cnc12)c1cc(Cl)c2cccnc2c1N1CCN(C(=O)c2ccncc2)CC1 (centres undefined)
28 | < 50 nM | Cc1cc(C(C)Nc2ncnc3[nH]cnc23)c(-c2cc(F)cc(F)c2)c2nnccc12 (centres undefined)
29 | 50 to 100 nM | CC(Nc1ncnc2[nH]cnc12)c1cc(Cl)c2cccnc2c1N1CCC(N2CCCCC2)CC1 (centres undefined)
30 | < 50 nM | CC(Nc1ncnc2[nH]cnc12)c1cc(Cl)c2cccnc2c1N1CCN(C(=O)c2ccn(C)n2)CC1 (centres undefined)
31 | 100 to 250 nM | CC(Nc1ncnc2[nH]cnc12)c1cc(Cl)c2cccnc2c1N1CCC(C#N)C1 (centres undefined)
32 | 50 to 100 nM | CC(Nc1ncnc2[nH]cnc12)c1cc(Cl)c2cccnc2c1N1CCN(C2CCCCC2)CC1 (centres undefined)
33 | < 50 nM | CC(Nc1ncnc2[nH]cnc12)c1cc(Cl)c2cccnc2c1N1CCN(C(=O)c2cnccn2)CC1 (centres undefined)
34 | 100 to 250 nM | CC(Nc1ncnc2[nH]cnc12)c1cc(F)c2ccnnc2c1-c1cc(F)cc(F)c1 (centres undefined)
35 | 50 to 100 nM and < 50 nM | COC(=O)N[C@H]1CCN(c2c(C(C)Nc3ncnc4[nH]cnc34)cc(Cl)c3cccnc23)C1 (some centres undefined)
36 | < 50 nM | CC(Nc1ncnc2[nH]cnc12)c1cc(Cl)c2cn[nH]c2c1-c1cccc(F)c1 (centres undefined)
37 | 250 to 500 nM | CC(Nc1ncnc2[nH]cnc12)c1cc(Cl)c2cccnc2c1N1CCN(C(=O)c2ccccc2F)CC1 (centres undefined)
38 | < 50 nM | CC(Nc1ncnc2[nH]cnc12)c1cc(Cl)c2cccnc2c1N1CCN(C(=O)c2cccnc2)CC1 (centres undefined)
39 | 100 to 250 nM | CC(Nc1ncnc2[nH]cnc12)c1cc(Cl)c2cccnc2c1N1CCC(F)CC1 (centres undefined)
40 | < 50 nM | CC(Nc1ncnc2[nH]cnc12)c1cc(F)c2cccnc2c1N1CCN(C(=O)c2cnn(C)c2)CC1 (centres undefined)
41 | 250 to 500 nM | CC(Nc1ncnc2[nH]cnc12)c1cc(Cl)c2ccncc2c1N1CC[C@H](F)C1 (some centres undefined)
42 | 250 to 500 nM | CC(Nc1ncnc2[nH]cnc12)c1cc(Cl)c2cccnc2c1N1CCCC(F)C1 (centres undefined)
43 | < 50 nM | CC(Nc1ncnc2[nH]cnc12)c1cc(Cl)c2ccncc2c1-c1cccc(F)c1 (centres undefined)
44 | < 50 nM | Cc1cc(C(=O)N2CCN(c3c(C(C)Nc4ncnc5[nH]cnc45)cc(Cl)c4cccnc34)CC2)no1 (centres undefined)
45 | 250 to 500 nM | CC(Nc1ncnc2[nH]cnc12)c1cc(Cl)c2cccnc2c1N1CCC(c2ccccc2)C1 (centres undefined)
46 | < 50 nM | CC(=O)N[C@H]1CCN(c2c(C(C)Nc3ncnc4[nH]cnc34)cc(Cl)c3cccnc23)C1 (some centres undefined)

Row | IC50 | SMILES
47 | < 50 nM | C[C@@H](Nc1ncnc2[nH]cnc12)c1cc(F)c2cccnc2c1-c1cccc(F)c1
48 | < 50 nM | CC(Nc1ncnc2[nH]cnc12)c1cc(Cl)c2cnn(C)c2c1-c1cc(F)cc(F)c1 (centres undefined)
49 | 500 to 1000 nM | CC(Nc1ncnc2[nH]cnc12)c1cc(Cl)c2ccnnc2c1-c1ccnc(F)c1 (centres undefined)
50 | < 50 nM | CC(Nc1ncnc2[nH]cnc12)c1cc(Cl)c2cccnc2c1N1CCN(C(=O)N(C)C)CC1 (centres undefined)
51 | < 50 nM | CC(Nc1ncnc2[nH]cnc12)c1cc(F)c2cccnc2c1N1CCN(C2CCC2)CC1 (centres undefined)
52 | < 50 nM | CC(Nc1ncnc2[nH]cnc12)c1cc(Cl)c2ccnnc2c1-c1cc(F)cc(F)c1 (centres undefined)
53 | 50 to 100 nM | CC(Nc1ncnc2[nH]cnc12)c1cc(Cl)c2ccnnc2c1-c1cncc(F)c1 (centres undefined)
54 | < 50 nM | CC(Nc1ncnc2[nH]cnc12)c1cc(Cl)c2cccnc2c1N1CCN(CCO)CC1 (centres undefined)
55 | 500 to 1000 nM | COc1ccc(-c2c(C(C)Nc3ncnc4[nH]cnc34)cc(Cl)c3ccnnc23)cc1F (centres undefined)
56 | < 50 nM | CC(C)C(=O)N[C@H]1CCN(c2c(C(C)Nc3ncnc4[nH]cnc34)cc(Cl)c3cccnc23)C1 (some centres undefined)
57 | 100 to 250 nM | CC(Nc1ncnc2[nH]cnc12)c1cc(Cl)c2cccnc2c1N1CCC(CCO)CC1 (centres undefined)
58 | 100 to 250 nM | CC(Nc1ncnc2[nH]cnc12)c1cc(Cl)c2cccnc2c1N1CCC(CO)CC1 (centres undefined)
59 | < 50 nM | CC(Nc1ncnc2[nH]cnc12)c1cc(Cl)c2cccnc2c1N1CCN(Cc2ccncc2)CC1 (centres undefined)
60 | 100 to 250 nM and < 50 nM | CC(Nc1ncnc2[nH]cnc12)c1cc(Cl)c2cccnc2c1-c1ccccc1F (centres undefined)
61 | 100 to 250 nM | CC(Nc1ncnc2[nH]cnc12)c1cc(Cl)c2cccnc2c1N1CCC(NS(C)(=O)=O)CC1 (centres undefined)
62 | 250 to 500 nM and 100 to 250 nM | COC1CCCN(c2c(C(C)Nc3ncnc4[nH]cnc34)cc(Cl)c3cccnc23)C1 (centres undefined)
63 | 100 to 250 nM | CC(Nc1ncnc2[nH]cnc12)c1cc(Cl)c2cccnc2c1N1CCC(C#N)CC1 (centres undefined)
64 | 250 to 500 nM | CC(Nc1ncnc2[nH]cnc12)c1ccc2cccnc2c1-c1cccc(F)c1 (centres undefined)
65 | < 50 nM | CC(Nc1ncnc2[nH]cnc12)c1cc(Cl)c2ccccc2c1N1CCC(O)CC1 (centres undefined)
66 | 100 to 250 nM | CC(Nc1ncnc2[nH]cnc12)c1cc(Cl)c2cccnc2c1N1CCN(C(=O)c2cccc(F)c2)CC1 (centres undefined)
67 | < 50 nM | CC(Nc1ncnc2[nH]cnc12)c1cc(Cl)c2cn[nH]c2c1-c1cc(F)cc(F)c1 (centres undefined)
68 | 500 to 1000 nM | CC(Nc1nc(N)nc2[nH]cnc12)c1ccc2ccccc2c1-c1cccc(F)c1 (centres undefined)
69 | 50 to 100 nM | CC(Nc1ncnc2[nH]cnc12)c1nc(C#N)c2ccccc2c1-c1cccc(F)c1 (centres undefined)

Row | IC50 | SMILES
70 | 50 to 100 nM | COC1CCN(c2c(C(C)Nc3ncnc4[nH]cnc34)cc(Cl)c3cccnc23)CC1 (centres undefined)
71 | 250 to 500 nM and < 50 nM | CC(Nc1ncnc2[nH]cnc12)c1cc(Cl)c2cccnc2c1N1CC[C@H](NS(C)(=O)=O)C1 (some centres undefined)
72 | < 50 nM | CC(Nc1ncnc2[nH]cnc12)c1cc(Cl)c2cccnc2c1N1CCN(CC(=O)N(C)C)CC1 (centres undefined)
73 | 100 to 250 nM | CC(Nc1ncnc2[nH]cnc12)c1cc(F)c2cccnc2c1N1CC[C@@H](O)C1 (some centres undefined)
74 | 500 to 1000 nM | CC(Nc1ncnc2[nH]cnc12)c1ccc2cccnc2c1-c1cc(F)cc(F)c1 (centres undefined)
75 | < 50 nM | CC(Nc1ncnc2[nH]cnc12)c1cc(Cl)c2conc2c1-c1cccc(F)c1 (centres undefined)
76 | < 50 nM | COCC(=O)N1CCN(c2c(C(C)Nc3ncnc4[nH]cnc34)cc(Cl)c3cccnc23)CC1 (centres undefined)
77 | < 50 nM | CC(Nc1ncnc2[nH]cnc12)c1cc(Cl)c2cccnc2c1N1CCN(C(=O)c2ccccn2)CC1 (centres undefined)
78 | 100 to 250 nM and < 50 nM | CC(Nc1ncnc2[nH]cnc12)c1cc(F)c2ccnnc2c1-c1cccc(F)c1 (centres undefined)
79 | 500 to 1000 nM | CC(Nc1ncnc2[nH]cnc12)c1cc(Cl)c2cccnc2c1N1CCC(F)(F)CC1 (centres undefined)
80 | 500 to 1000 nM | CC(Nc1ncnc2[nH]cnc12)c1ccc2cccnc2c1-c1ccccc1F (centres undefined)
81 | < 50 nM | CCC(Nc1ncnc2[nH]cnc12)c1cc(Cl)c2ccnnc2c1-c1cccc(F)c1 (centres undefined)
82 | 100 to 250 nM | Cc1cc(C(C)Nc2ncnc3[nH]cnc23)c(-c2cccc(F)c2)c2ncccc12 (centres undefined)
83 | < 50 nM | CC(Nc1ncnc2[nH]cnc12)c1cc(Cl)c2cccnc2c1N1CCN(C(=O)C2CC2)CC1 (centres undefined)
84 | < 50 nM | COC(=O)NC1CCN(c2c(C(C)Nc3ncnc4[nH]cnc34)cc(Cl)c3cccnc23)CC1 (centres undefined)
85 | < 50 nM | CC(Nc1ncnc2[nH]cnc12)c1cc(Cl)c2cccnc2c1N1CCC(O)CC1 (centres undefined)
86 | 100 to 250 nM | COC[C@H]1CCCN1c1c(C(C)Nc2ncnc3[nH]cnc23)cc(Cl)c2cccnc12 (some centres undefined)
87 | < 50 nM and 50 to 100 nM and 250 to 500 nM | CC(Nc1ncnc2[nH]cnc12)c1cc(Cl)c2ccnnc2c1-c1ccccc1F (centres undefined)
88 | < 50 nM | C[C@H](Nc1ncnc2[nH]cnc12)c1cc(F)c2cccnc2c1-c1cccc(F)c1
89 | < 50 nM | Cc1noc(C)c1C(=O)N1CCN(c2c(C(C)Nc3ncnc4[nH]cnc34)cc(Cl)c3cccnc23)CC1 (centres undefined)

Source: the Kinase Knowledgebase extract (Sharma et al. 2016)
